This is an account of results in patent publication US9487504B2, “Imidazolyl analogs as syk inhibitors” (Merck Sharp & Dohme Corp., priority 2012, dated 2016).

Read-outs that look alike come from different tables or passages of the source.

This assay deals with T1, recombinant human GST-Syk (Homo sapiens, UniProt P43405).
T1 construct: purchased Carna Biosciences 08-176
The assay is described as follows: Homogeneous Time-Resolved Fluorescence (HTRF) assay for the recombinant human Syk enzyme. Type of assay: biochemical. As to conditions: ATP 25 μM, 10-dose titration. Here is the method: Syk inhibition may be determined using the following assay protocol:
Homogeneous Time-Resolved Fluorescence (HTRF) Assay for the Recombinant Human Syk Enzyme:
A recombinant GST-hSyk fusion protein was used to measure potency of compounds to inhibit human Syk activity. The recombinant human GST-Syk (Carna Biosciences #08-176) ([…]) was incubated with various concentrations of the inhibitor diluted in DMSO (0.1% final concentration) for 10 minutes at room temperature in 15 mM Tris-HCl (pH 7.5), 0.01% tween 20, 2 mM DTT in 384 well plate format. To initiate the reaction the biotinylated substrate peptide (250 nM final concentration) that contains the phosphorylation site for Syk was added with magnesium (5 mM final concentration) and ATP (25 μM final concentration). Final volume of the reaction was 10 μL. Phosphorylation of the peptide was allowed to proceed for 45 minutes at room temperature. To quench the reaction and detect the phosphorylated product, 2 nM of a Europium-anti-phosphotyrosine antibody (Perkin Elmer #AD0161) and 70 nM SA-APC (Perkin-Elmer #CR130-100) were added together in 15 mM Tris pH 7.5, 40 mM EDTA, 0.01% tween 20. Final volume of the quenching solution was 10 μL. The resulting HTRF signal was measured after 30 minutes on an EnVision (Perkin-Elmer) reader using a time-resolved fluorescence protocol. IC50 was determined following 10-dose titration (10 μM to 0.508 nM) and four parameter logistic curve fitting using the Merck Assay Data Analyzer. The rhSyk activity (IC50) is expressed as +++ (100 nM or less), ++ (between 100 and 1000 nM), + (between 1 and 10 μM).

For `CNC(=O)[C@H]1CC[C@](O)(c2cn(-c3cc(C)cc(Nc4nccc(C(F)(F)F)n4)c3)cn2)CC1` [Example 1, Cis-4-hydroxy-N-methyl-4-[1-(3-methyl-5-{[4-(trifluoromethyl)pyrimidin-2-yl]amino}phenyl)-1H-imidazol-4-yl]cyclohexanecarboxamide], the IC50 is at most 100 nM (read-out: rhSYK Activity) and 6.1 nM (read-out: rhSYK IC50).

With `Cc1cc(Nc2nccc(C(F)(F)F)n2)cc(-n2cnc(C3(O)CCC(O)CC3)c2)c1` (stereo not drawn) [Example 65, trans-1-[1-(3-methyl-5-{[4-(trifluoromethyl)pyrimidin-2-yl]amino}phenyl)-1H-imidazol-4-yl]cyclohexane-1,4-diol], under “read-out: rhSYK Activity”, the IC50 was at most 100 nM.

For the compound `Cc1cc(Nc2ncc(F)c(C3CC3)n2)cc(-n2cnc([C@]3(O)CC[C@@H](OC(=O)c4ccccc4)CC3)c2)c1` [Example 60, cis-4-(1-{3-[(4-cyclopropyl-5-fluoropyrimidin-2-yl)amino]-5-methylphenyl}-1H-imidazol-4-yl)-4-hydroxycyclohexyl benzoate], the IC50 (read-out: rhSYK Activity) lay within 100 to 1000 nM.

As to `CCOC(=O)C(C)(C)C1CCC(O)(c2cn(-c3cc(C)cc(Nc4cc(C(F)(F)F)ccn4)n3)cn2)CC1` (stereo not drawn) [Example 24, Ethyl 2-{trans-4-hydroxy-4-[1-(4-methyl-6-{[4-(trifluoromethyl)-pyridin-2-yl]amino}-pyridin-2-yl)-1H-imidazol-4-yl]-cyclohexyl}-2-methylpropanoate], under “read-out: rhSYK Activity”, the IC50 lay in the range of 100 to 1000 nM.

In the case of `Cc1cc(Nc2nccc(C(F)(F)F)n2)cc(-n2cnc(C(C)(C)O)c2)c1` [Example 99, 2-[1-(3-methyl-5-{[4-(trifluoromethyl)pyrimidin-2-yl]amino}phenyl)-1H-imidazol-4-yl]propan-2-ol], the IC50 (read-out: rhSYK Activity) was at most 100 nM.

On to `Cc1cc(Nc2nccc(C(F)(F)F)n2)cc(-n2cnc([C@]3(O)CC[C@@H](O)[C@@H](C)C3)c2)c1` [Example 56, (1S,3S,4R)-3-methyl-1-[1-(3-methyl-5-{[4-(trifluoromethyl)pyrimidin-2-yl]amino}phenyl)-1H-imidazol-4-yl]cyclohexane-1,4-diol], for which the IC50 (read-out: rhSYK Activity) is at most 100 nM.

Regarding `CCOC(=O)C1(C)CC=C(c2cn(-c3cc(C)cc(Nc4nccc(C(F)(F)F)n4)c3)cn2)CC1` (racemic) [Example 19, Ethyl 1-methyl-4-[1-(3-methyl-5-{[4-(trifluoromethyl)-pyrimidin-2-yl]amino}-phenyl)-1H-imidazol-4-yl]cyclohex-3-ene-1-carboxylate], under “read-out: rhSYK Activity”, the IC50 is 100 to 1000 nM.

As for `Cc1cc(Nc2cc(C3CC3)ccn2)nc(-n2cnc([C@]3(O)CC[C@@H](O)CC3)c2)c1` [Example 45, cis-1-(1-{6-[(4-cyclopropylpyridin-2-yl)amino]-4-methylpyridin-2-yl}-1H-imidazol-4-yl)cyclohexane-1,4-diol], the IC50 (read-out: rhSYK Activity) is at most 100 nM and the IC50 (read-out: rhSYK IC50) turned out to be 1.38 nM.

Take `CC(C)NC(=O)c1cn(-c2cccc(Nc3nccc(C(F)(F)F)n3)c2)cn1` [Example 103, N-(1-methylethyl)-1-(3-{[4-(trifluoromethyl)pyrimidin-2-yl]amino}phenyl)-1H-imidazole-4-carboxamide]: under “read-out: rhSYK Activity”, the IC50 was 100 to 1000 nM.

Consider `Cc1cc(Nc2ncc(F)c(C3CC3)n2)cc(-n2cnc([C@]3(O)CC[C@@H](O)CC3)c2)c1` [Example 59, cis-1-(1-{3-[(4-cyclopropyl-5-fluoropyrimidin-2-yl)amino]-5-methylphenyl}-1H-imidazol-4-yl)cyclohexane-1,4-diol], for which the IC50 (read-out: rhSYK Activity) was at most 100 nM.

On to `Cc1cc(Nc2nccc(C(F)(F)F)n2)cc(-n2cnc(C3=CCC(C(=O)O)C(C)(C)C3)c2)c1` (centres unmarked) [Example 4, 6,6-Dimethyl-4-[1-(3-methyl-5-{[4-(trifluoromethyl)pyrimidin-2-yl]amino}phenyl)-1H-imidazol-4-yl]cyclohex-3-ene-1-carboxylic acid], for which the IC50 is at most 100 nM (read-out: rhSYK Activity) and 0.9 nM (read-out: rhSYK IC50).
